Data as given in the NIST ThermoML archive (doi:10.1021/je600554h).

Experiment: xn = mol fraction of the nth substance listed
Conditions: 100 kPa, Liquid; for viscosity: Capillary tube (Ostwald / Ubbelohde) method

COC(C)(C)C [2-methoxy-2-methylpropane] + CCCCCCCC
Conditions | mass density [kg/m3] | viscosity [mPa·s]
298.15 K, x1 = 0.8975 | 729.408 | –
303.15 K, x1 = 0.1019 | – | 0.468
303.15 K, x1 = 0.1059 | 696.633 | –
303.15 K, x1 = 0.2123 | 699.177 | –
303.15 K, x1 = 0.2189 | – | 0.447
303.15 K, x1 = 0.3019 | 701.546 | –
303.15 K, x1 = 0.3026 | – | 0.43
303.15 K, x1 = 0.4029 | – | 0.414
303.15 K, x1 = 0.4099 | 704.666 | –
303.15 K, x1 = 0.4995 | – | 0.397
303.15 K, x1 = 0.5053 | 707.798 | –
303.15 K, x1 = 0.6005 | 711.146 | –
303.15 K, x1 = 0.6099 | – | 0.382
303.15 K, x1 = 0.6934 | 714.806 | –
303.15 K, x1 = 0.7072 | – | 0.367
303.15 K, x1 = 0.7967 | 719.238 | –
303.15 K, x1 = 0.8975 | 724.303 | –
308.15 K, x1 = 0.1019 | – | 0.443
308.15 K, x1 = 0.1059 | 692.484 | –
308.15 K, x1 = 0.2123 | 694.926 | –
308.15 K, x1 = 0.2189 | – | 0.425
308.15 K, x1 = 0.3019 | 697.212 | –
308.15 K, x1 = 0.3026 | – | 0.409
308.15 K, x1 = 0.4029 | – | 0.393
308.15 K, x1 = 0.4099 | 700.213 | –
308.15 K, x1 = 0.4995 | – | 0.376
308.15 K, x1 = 0.5053 | 703.231 | –
308.15 K, x1 = 0.6005 | 706.458 | –
308.15 K, x1 = 0.6099 | – | 0.362
308.15 K, x1 = 0.6934 | 709.988 | –
308.15 K, x1 = 0.7967 | 714.261 | –
308.15 K, x1 = 0.8975 | 719.151 | –
313.15 K, x1 = 0.1019 | – | 0.42
313.15 K, x1 = 0.1059 | 688.303 | –
313.15 K, x1 = 0.2123 | 690.652 | –
313.15 K, x1 = 0.2189 | – | 0.402
313.15 K, x1 = 0.3019 | 692.842 | –
313.15 K, x1 = 0.3026 | – | 0.387
313.15 K, x1 = 0.4029 | – | 0.374
313.15 K, x1 = 0.4099 | 695.728 | –
313.15 K, x1 = 0.4995 | – | 0.358
313.15 K, x1 = 0.5053 | 698.629 | –
313.15 K, x1 = 0.6005 | 701.736 | –
313.15 K, x1 = 0.6934 | 705.127 | –
313.15 K, x1 = 0.7967 | 709.24 | –
313.15 K, x1 = 0.8975 | 713.95 | –
318.15 K, x1 = 0.1019 | – | 0.398
318.15 K, x1 = 0.1059 | 684.108 | –
318.15 K, x1 = 0.2123 | 686.345 | –
318.15 K, x1 = 0.2189 | – | 0.381
318.15 K, x1 = 0.3019 | 688.444 | –
318.15 K, x1 = 0.3026 | – | 0.367
318.15 K, x1 = 0.4029 | – | 0.355
318.15 K, x1 = 0.4099 | 691.207 | –
318.15 K, x1 = 0.5053 | 693.985 | –
318.15 K, x1 = 0.6005 | 696.968 | –
318.15 K, x1 = 0.6934 | 700.224 | –
318.15 K, x1 = 0.7967 | 704.169 | –
318.15 K, x1 = 0.8975 | 708.696 | –
323.15 K, x1 = 0.1019 | – | 0.377
323.15 K, x1 = 0.1059 | 679.876 | –
323.15 K, x1 = 0.2123 | 682.017 | –
323.15 K, x1 = 0.2189 | – | 0.361
323.15 K, x1 = 0.3019 | 684.017 | –
323.15 K, x1 = 0.3026 | – | 0.349
323.15 K, x1 = 0.4099 | 686.655 | –
323.15 K, x1 = 0.5053 | 689.306 | –
323.15 K, x1 = 0.6005 | 692.159 | –
323.15 K, x1 = 0.6934 | 695.271 | –
323.15 K, x1 = 0.7967 | 699.039 | –
328.15 K, x1 = 0.1019 | – | 0.359
328.15 K, x1 = 0.1059 | 675.617 | –
328.15 K, x1 = 0.2123 | 677.665 | –
328.15 K, x1 = 0.2189 | – | 0.344
328.15 K, x1 = 0.3019 | 679.549 | –
328.15 K, x1 = 0.4099 | 682.067 | –
328.15 K, x1 = 0.5053 | 684.587 | –
328.15 K, x1 = 0.6005 | 687.304 | –
328.15 K, x1 = 0.6934 | 690.272 | –
333.15 K, x1 = 0.1019 | – | 0.342
333.15 K, x1 = 0.1059 | 671.333 | –
333.15 K, x1 = 0.2123 | 673.25 | –
333.15 K, x1 = 0.3019 | 675.046 | –
333.15 K, x1 = 0.4099 | 677.434 | –
333.15 K, x1 = 0.5053 | 679.825 | –
333.15 K, x1 = 0.6005 | 682.397 | –
338.15 K, x1 = 0.1059 | 667.018 | –
338.15 K, x1 = 0.2123 | 668.815 | –
338.15 K, x1 = 0.3019 | 670.514 | –
338.15 K, x1 = 0.4099 | 672.758 | –
343.15 K, x1 = 0.1059 | 662.68 | –
343.15 K, x1 = 0.2123 | 664.349 | –
343.15 K, x1 = 0.3019 | 665.923 | –
343.15 K, x1 = 0.4099 | 668.038 | –
348.15 K, x1 = 0.1059 | 658.279 | –
348.15 K, x1 = 0.2123 | 659.83 | –
348.15 K, x1 = 0.3019 | 661.299 | –
353.15 K, x1 = 0.1059 | 653.843 | –
353.15 K, x1 = 0.2123 | 655.28 | –
353.15 K, x1 = 0.3019 | 656.638 | –
358.15 K, x1 = 0.1059 | 649.405 | –
358.15 K, x1 = 0.2123 | 650.681 | –
358.15 K, x1 = 0.3019 | 651.917 | –
363.15 K, x1 = 0.1059 | 644.85 | –
363.15 K, x1 = 0.2123 | 646.031 | –
363.15 K, x1 = 0.3019 | 647.14 | –
